Here are results for two compounds from US7582629B2, “Derivatives of isothiazol-3(2H)-one 1,1-dioxides as liver X receptor modulators” (AstraZeneca AB, priority 2005, dated 2009).

The term EC50 denotes the concentration needed to bring the measured effect to its halfway point.

The test has as its target T1, LXRα (Homo sapiens, UniProt Q13133).
T1 construct: human LXRalpha (amino acid 205-447); made in house; host or cells: E. coli
T1 sequence (Q13133 205-447): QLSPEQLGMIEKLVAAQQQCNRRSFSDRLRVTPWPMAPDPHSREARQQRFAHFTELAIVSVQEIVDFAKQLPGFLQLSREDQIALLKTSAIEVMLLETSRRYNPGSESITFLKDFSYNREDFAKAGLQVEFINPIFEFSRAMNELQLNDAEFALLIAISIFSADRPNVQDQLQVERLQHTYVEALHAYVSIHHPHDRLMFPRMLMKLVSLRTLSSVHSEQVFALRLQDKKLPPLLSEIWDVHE
Briefly: Co-activator recruitment assay (LXR-LBD / SRC-1 peptide, time-resolved fluorescence). The class given is biochemical. The settings on record: coactivator recruitment assays. The source says: The Ligand Binding Domain (LBD) of human LXRalpha (amino acid 205-447) and LXRbeta (amino acid 216-461) was produced by recombinant techniques in E. coli. A fragment of the human Steroid Receptor Co-Activator-1 (SRC-1) was produced as a synthetic peptide. An anti-6×His-antibody coupled with Europium (Eu^3+) was used to recognize the His-tag on the LXR-LBD and Allophycocyanin (APC) coupled to streptavidin was used to recognize the biotinylated SRC-1. Agonist binding to LXRalpha or LXRbeta enhances the affinity of LXR towards SRC-1 and thereby brings Eu^3+ and APC in close proximity. Eu^3+ is excited at 337 nm and emitts light at 620 nm. This emission, when in close proximity, excites APC to emit light at 665 nm.
Compounds (10 mM) in DMSO were diluted (⅓) in DMSO in 10 concentrations. […]
The assay mix has the following final concentrations; LXRalpha mix: 0.06 μg/mL Eu-labelled anti-6×His Ab, […] Streptavidin APC, 30 nM SRC-1 peptide and 0.9 μg/mL LXRalpha in buffer and LXRbeta mix; 0.06 μg/mL Eu-labelled anti-6×His Ab, 1.15 μg/1 mL Streptavidin APC, 90 nM SRC-1 peptide and 0.2 μg/mL LXRbeta in buffer. Time-resolved fluorescence readings were done in a Wallac Victor reader at 665 nm followed by reading at 615 nm. […]

Compound `COCCN1C(=O)C(Nc2ccc3oc(C(C)=O)cc3c2)=C(c2ccccc2)S1(=O)=O` [Example 13, 4-[(2-Acetyl-1-benzofuran-5-yl)amino]-2-(2-methoxyethyl)-5-phenylisothiazol-3(2H)-one 1,1-dioxide] had an EC50 of 270 nM.
The figure for `O=C1C(Nc2ccc(OC(F)F)cc2)=C(c2ccccc2)S(=O)(=O)N1Cc1ccc(OC(F)F)cc1` [Example 14, 2-[4-(Difluoromethoxy)benzyl]-4-{[4-(difluoromethoxy)phenyl]amino}-5-phenylisothiazol-3(2H)-one 1,1-dioxide] is 75 nM.
